Among the data in patent US20230355626A1, “INHIBITORS OF HUMAN IMMUNODEFICIENCY VIRUS REPLICATION” (VIIV HEALTHCARE UK (NO.5) LIMITED, priority 2020, published 2023) are CC50 and EC50 values, retold here.

Series [1] is described as follows: Compound cytotoxicity, XTT-based colorimetric assay. It is filed as cell-based. As to conditions: human; uninfected MT2 cells, day 4, XTT assay. How it is done: Compound cytotoxicity and the corresponding CC50 values were determined using the same protocol as described in the antiviral assay except that uninfected cells were used. Cytotoxicity was assessed on day 4 in uninfected MT2 cells by using an XTT (2,3-bis[2-Methoxy-4-nitro-5-sulfophenyl]-2H-tetrazolium-5-carboxyanilide inner salt)-based colorimetric assay (Sigma-Aldrich, St Louis, Mo).
Background: Tetrazolium dyes change colour on reduction, which living cells bring about.

A further series deals with recombinant NL4-3 virus. The experiment in a line: HIV cell culture assay (antiviral activity, luciferase readout in infected MT-2 cells). It is filed as cell-based. As to conditions: Human immunodeficiency virus 1, NL43, MT2. How it is done: HIV cell culture assay—MT-2 cells, 293T cells and the proviral DNA clone of NL4-3 virus were obtained from the NIH AIDS Research and Reference Reagent Program. MT-2 cells were propagated in RPMI 1640 media supplemented with 10% heat inactivated fetal bovine serum (FBS), 100 μg/ml penicillin G and up to 100 units/mL streptomycin. The 293T cells were propagated in DMEM media supplemented with 10% heat inactivated FBS, 100 μg/mL penicillin G and 100 μg/mL streptomycin. A recombinant NL4-3 proviral clone, in which a section of the nef gene was replaced with the Renilla luciferase gene, was used to make the reference virus used in these studies. The recombinant virus was prepared through transfection of the recombinant NL4-3 proviral clone into 293T cells using Transit-293 Transfection Reagent from Mirus Bio LLC (Madison, WI). Supernatant was harvested after 2-3 days and the amount of virus present was titered in MT-2 cells using luciferase enzyme activity as a marker by measuring luciferase enzyme activity. Luciferase was quantitated using the EnduRen Live Cell Substrate from Promega (Madison, WI). Antiviral activities of compounds toward the recombinant virus were quantified by measuring luciferase activity in MT-2 cells infected for 4-5 days with the recombinant virus in the presence of serial dilutions of the compound.
The 50% effective concentration (EC50) was calculated by using the exponential form of the median effect equation where (Fa)=1/[1+(ED50/drug conc.)m] (Johnson VA, Byington RT. Infectivity Assay. In Techniques in HIV Research. ed. Aldovini A, Walker BD. 71-76. New York: Stockton Press.1990). Curve fitting and analysis were performed with ActivityBase XE Runner software version 9.1.0.4 using model 203 (ID Business Solutions, LTD, Guildford, UK).

The structures appear in SMILES notation. A value given as a limit tells only on which side of the number the result lay.

Broadly, the CC50 is the concentration that lowers cell viability or growth by half. Read a low CC50 as greater toxicity to the cells. What is called EC50 is the concentration needed to bring the measured effect to its halfway point. In series [1], `Cn1nc(NS(C)(=O)=O)c2c(Cl)ccc(-n3c([C@H](Cc4cc(F)cc(F)c4)NC(=O)Cn4nc(C(F)F)c5c4C(F)(F)[C@@H]4C[C@H]54)nc4nc(OC5CC(F)(F)C5)ccc4c3=O)c21` (atropisomer, axis not shown; (P)) [Example 30, N-[(1S)-1-[(3P)-3-(4-chloro-3-methanesulfonamido-1-methyl-1H-indazol-7-yl)-7-(3,3-difluorocyclobutoxy)-4-oxo-3H,4H-pyrido[2,3-d]pyrimidin-2-yl]-2-(3,5-difluorophenyl)ethyl]-2-[(2S,4R)-9-(difluoromethyl)-5,5-difluoro-7,8-diazatricyclo[4.3.0.0^2,^4]nona-1(6),8-dien-7-yl]acetamide] yielded a half-maximal cytotoxic concentration (CC50) at 4 day greater than 500000 pM. Besides, the EC50 with recombinant NL4-3 virus turned out to be 31 pM.
The molecule `Cn1nc(NS(C)(=O)=O)c2c(Cl)ccc(-n3c([C@H](Cc4cc(F)cc(F)c4)NC(=O)Cn4nc(C(F)F)c5c4C(F)(F)[C@@H]4C[C@H]54)nc4nc(OCCNCC(F)(F)F)ccc4c3=O)c21` (atropisomer, axis not shown; (P)) [Example 25, N-((S)-1-((3P)-3-(4-chloro-1-methyl-3-(methylsulfonamido)-1H-indazol-7-yl)-4-oxo-7-(2-((2,2,2-trifluoroethyl)amino)ethoxy)-3,4-dihydropyrido[2,3-d]pyrimidin-2-yl)-2-(3,5-difluorophenyl)ethyl)-2-((3bS,4aR)-3-(difluoromethyl)-5,5-difluoro-3b,4,4a,5-tetrahydro-1H-cyclopropa[3,4]cyclopenta[1,2-c]pyrazol-1-yl)acetamide] returned a 50% cytotoxic concentration (CC50) at 4 day in series [1] greater than 100000 pM. Further, the concentration for a half-maximal effect (EC50) in the series with recombinant NL4-3 virus was determined as 57 pM.
The matching figures for `Cn1nccc1CCOc1ccc2c(=O)n(-c3ccc(Cl)c4c(NS(C)(=O)=O)nn(C)c34)c([C@H](Cc3cc(F)cc(F)c3)NC(=O)Cn3nc(C(F)F)c4c3C(F)(F)[C@@H]3C[C@H]43)nc2n1` (atropisomer, axis not shown; (P)) [Example 14, N-((R)-1-((3P,3P)-3-(4-chloro-1-methyl-3-(methylsulfonamido)-1H-indazol-7-yl)-7-(2-(1-methyl-1H-pyrazol-5-yl)ethoxy)-4-oxo-3,4-dihydropyrido[2,3-d]pyrimidin-2-yl)-2-(3,5-difluorophenyl)ethyl)-2-((3bS,4aR)-3-(difluoromethyl)-5,5-difluoro-3b,4,4a,5-tetrahydro-1H-cyclopropa[3,4]cyclopenta[1,2-c]pyrazol-1-yl)acetamide]: greater than 500000 pM and 61 pM.
Molecule `Cn1nc(NS(C)(=O)=O)c2c(Cl)ccc(-n3c([C@H](Cc4cc(F)cc(F)c4)NC(=O)Cn4nc(C(F)F)c5c4C(F)(F)[C@@H]4C[C@H]54)nc4nc(OCCC5CC(F)(F)C5)ccc4c3=O)c21` (atropisomer, axis not shown; (P)) [Example 32, N-((S)-1-((3P,3P)-3-(4-chloro-1-methyl-3-(methylsulfonamido)-1H-indazol-7-yl)-7-(2-(3,3-difluorocyclobutyl)ethoxy)-4-oxo-3,4-dihydropyrido[2,3-d]pyrimidin-2-yl)-2-(3,5-difluorophenyl)ethyl)-2-((3bS,4aR)-3-(difluoromethyl)-5,5-difluoro-3b,4,4a,5-tetrahydro-1H-cyclopropa[3,4]cyclopenta[1,2-c]pyrazol-1-yl)acetamide] showed a CC50 at 4 day in series [1] greater than 100000 pM.
`Cn1nc(NS(C)(=O)=O)c2c(Cl)ccc(-n3c([C@H](Cc4cc(F)cc(F)c4)NC(=O)Cn4nc(C(F)F)c5c4C(F)(F)[C@@H]4C[C@H]54)nc4nc(OCCOC5CC5(F)F)ccc4c3=O)c21` (stereo partly drawn) [Example 34, N-((1S)-1-((3P,3P)-3-(4-chloro-1-methyl-3-(methylsulfonamido)-1H-indazol-7-yl)-7-(2-(2,2-difluorocyclopropoxy)ethoxy)-4-oxo-3,4-dihydropyrido[2,3-d]pyrimidin-2-yl)-2-(3,5-difluorophenyl)ethyl)-2-((3bS,4aR)-3-(difluoromethyl)-5,5-difluoro-3b,4,4a,5-tetrahydro-1H-cyclopropa[3,4]cyclopenta[1,2-c]pyrazol-1-yl)acetamide] had a CC50 at 4 day in series [1] greater than 100000 pM. Further, in the series on recombinant NL4-3 virus, the concentration for a half-maximal effect (EC50) turned out to be 35 pM.
The matching figures for `COC1(CCOc2ccc3c(=O)n(-c4ccc(Cl)c5c(NS(C)(=O)=O)nn(C)c45)c([C@H](Cc4cc(F)cc(F)c4)NC(=O)Cn4nc(C(F)F)c5c4C(F)(F)[C@@H]4C[C@H]54)nc3n2)CCC1` (atropisomer, axis not shown; (P)) [Example 16, N-((S)-1-((3P,3P)-3-(4-chloro-1-methyl-3-(methylsulfonamido)-1H-indazol-7-yl)-7-(2-(1-methoxycyclobutyl)ethoxy)-4-oxo-3,4-dihydropyrido[2,3-d]pyrimidin-2-yl)-2-(3,5-difluorophenyl)ethyl)-2-((3bS,4aR)-3-(difluoromethyl)-5,5-difluoro-3b,4,4a,5-tetrahydro-1H-cyclopropa[3,4]cyclopenta[1,2-c]pyrazol-1-yl)acetamide]: greater than 100000 pM and 30 pM.
For `COC(C)(C)CCOc1ccc2c(=O)n(-c3ccc(Cl)c4c(NS(C)(=O)=O)nn(C)c34)c([C@H](Cc3cc(F)cc(F)c3)NC(=O)Cn3nc(C(F)F)c4c3C(F)(F)[C@@H]3C[C@H]43)nc2n1` (atropisomer, axis not shown; (P)) [Example 15, N-((S)-1-((3P)-3-(4-chloro-1-methyl-3-(methylsulfonamido)-1H-indazol-7-yl)-7-(3-methoxy-3-methylbutoxy)-4-oxo-3,4-dihydropyrido[2,3-d]pyrimidin-2-yl)-2-(3,5-difluorophenyl)ethyl)-2-((3bS,4aR)-3-(difluoromethyl)-5,5-difluoro-3b,4,4a,5-tetrahydro-1H-cyclopropa[3,4]cyclopenta[1,2-c]pyrazol-1-yl)acetamide] the same measures were greater than 500000 pM and 19 pM.
The molecule `Cn1nc(NS(C)(=O)=O)c2c(Cl)ccc(-n3c([C@H](Cc4cc(F)cc(F)c4)NC(=O)Cn4nc(C(F)F)c5c4C(F)(F)[C@@H]4C[C@H]54)nc4nc(OCCOCC(F)(F)C(F)(F)F)ccc4c3=O)c21` (atropisomer, axis not shown; (P)) [Example 20, N-((S)-1-((3P)-3-(4-chloro-1-methyl-3-(methylsulfonamido)-1H-indazol-7-yl)-4-oxo-7-(2-(2,2,3,3,3-pentafluoropropoxy)ethoxy)-3,4-dihydropyrido[2,3-d]pyrimidin-2-yl)-2-(3,5-difluorophenyl)ethyl)-2-((3bS,4aR)-3-(difluoromethyl)-5,5-difluoro-3b,4,4a,5-tetrahydro-1H-cyclopropa[3,4]cyclopenta[1,2-c]pyrazol-1-yl)acetamide] returned a cytotoxic concentration (CC50) at 4 day in series [1] greater than 100000 pM. Further, the EC50 in the series on recombinant NL4-3 virus was found to be 45 pM.
The matching figures for `Cn1nc(NS(C)(=O)=O)c2c(Cl)ccc(-n3c([C@H](Cc4cc(F)cc(F)c4)NC(=O)Cn4nc(C(F)F)c5c4C(F)(F)[C@@H]4C[C@H]54)nc4nc(Oc5ccc(F)cc5F)ccc4c3=O)c21` (atropisomer, axis not shown; (P)) [Example 36, N-((S)-1-((3P)-3-(4-chloro-1-methyl-3-(methylsulfonamido)-1H-indazol-7-yl)-7-(2,4-difluorophenoxy)-4-oxo-3,4-dihydropyrido[2,3-d]pyrimidin-2-yl)-2-(3,5-difluorophenyl)ethyl)-2-((3bS,4aR)-3-(difluoromethyl)-5,5-difluoro-3b,4,4a,5-tetrahydro-1H-cyclopropa[3,4]cyclopenta[1,2-c]pyrazol-1-yl)acetamide]: greater than 100000 pM and 81 pM.
